Assay results reported in the supplement of paper PMC10307832.

Tests used:
Assay in all cases: relative viability (nuclei count vs DMSO), 5 days (fraction); higher = more cells survive
Ibrutinib + OSI-027 = compound: C=CC(=O)N1CCC[C@@H](n2nc(-c3ccc(Oc4ccccc4)cc3)c3c(N)ncnc32)C1 [Ibrutinib] + COc1cccc2cc(-c3nc([C@H]4CC[C@H](C(=O)O)CC4)n4ncnc(N)c34)[nH]c12 [OSI-027] (partner 0.5 µM)
Method in brief: (§1)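 Lung cancer cell lines were seeded in 1536-well plates and dosed by pin tool the next day, with either a single drug or a fixed anchor-drug dose combined with five library-drug doses (not always all listed) spaced in √10 steps. Five days later, one step fixed the cells and stained their nuclei (final 0.05% Triton X-100, 1% formaldehyde, 1 ug/ml Hoechst), and nuclei were counted on 4× images. Relative viability is the nuclei count in treated wells divided by the count in vehicle wells, and each value is the median of duplicate plates.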

Ibrutinib + Vorinostat = compound: C=CC(=O)N1CCC[C@@H](n2nc(-c3ccc(Oc4ccccc4)cc3)c3c(N)ncnc32)C1 [Ibrutinib] + O=C(CCCCCCC(=O)Nc1ccccc1)NO [Vorinostat] (partner 1 µM)
Method in brief: as §1

BMX-IN-1 + OSI-027 = compound: C=CC(=O)Nc1cc(-n2c(=O)ccc3cnc4ccc(-c5ccc(NS(C)(=O)=O)cc5)cc4c32)ccc1C [BMX-IN-1] + COc1cccc2cc(-c3nc([C@H]4CC[C@H](C(=O)O)CC4)n4ncnc(N)c34)[nH]c12 [OSI-027] (partner 0.5 µM)
Method in brief: as §1

PAC-1 + Alpelisib = compound: C=CCc1cccc(/C=N/NC(=O)CN2CCN(Cc3ccccc3)CC2)c1O [PAC-1] + Cc1nc(NC(=O)N2CCC[C@H]2C(N)=O)sc1-c1ccnc(C(C)(C)C(F)(F)F)c1 [Alpelisib] (partner 2 µM)
Method in brief: as §1

Cell Line	relative viability (Ibrutinib + OSI-027; first compound 0.005 µM)	relative viability (Ibrutinib + OSI-027; first compound 0.01581 µM)	relative viability (Ibrutinib + OSI-027; first compound 0.05 µM)	relative viability (Ibrutinib + OSI-027; first compound 0.1581 µM)	relative viability (Ibrutinib + OSI-027; first compound 0.5 µM)	relative viability (Ibrutinib + Vorinostat; first compound 0.005 µM)	relative viability (Ibrutinib + Vorinostat; first compound 0.01581 µM)	relative viability (Ibrutinib + Vorinostat; first compound 0.05 µM)	relative viability (Ibrutinib + Vorinostat; first compound 0.1581 µM)	relative viability (Ibrutinib + Vorinostat; first compound 0.5 µM)	relative viability (BMX-IN-1 + OSI-027; first compound 0.02 µM)	relative viability (BMX-IN-1 + OSI-027; first compound 0.2 µM)	relative viability (BMX-IN-1 + OSI-027; first compound 0.6325 µM)	relative viability (BMX-IN-1 + OSI-027; first compound 2 µM)	relative viability (PAC-1 + Alpelisib; first compound 0.02 µM)	relative viability (PAC-1 + Alpelisib; first compound 0.06325 µM)	relative viability (PAC-1 + Alpelisib; first compound 0.2 µM)	relative viability (PAC-1 + Alpelisib; first compound 2 µM)
NCI-H661	0.702	0.674	0.476	0.698	0.423	0.746	0.761	0.752	0.758	0.752	0.638	0.798	0.772	0.761	0.581	0.56	0.671	0.687
NCI-H838	0.36	0.405	0.387	0.399	0.481	0.786	0.688	0.762	0.77	0.717	0.424	0.389	0.438	0.389	1.07	1.01	0.962	1.04
ABC-1	0.331	0.457	0.479	0.441	0.547	0.795	1.05	–	–	1.63	0.504	0.491	0.655	0.412	1.11	1.06	1.1	1.28
NCI-H441	0.579	0.664	0.597	0.677	0.707	0.789	0.694	1.05	0.823	0.919	0.708	0.753	0.649	0.68	0.629	0.671	0.679	0.57
NCI-H2126	–	0.59	0.537	0.537	0.632	0.454	0.748	0.644	0.725	0.56	0.696	0.703	0.872	0.664	0.756	0.729	0.717	0.703
NCI-H1651	0.624	0.663	0.792	0.685	0.768	0.492	0.629	0.524	0.577	0.574	0.9	0.426	0.782	0.582	0.917	1.12	0.848	0.867
NCI-H1734	0.448	0.528	0.611	0.665	0.564	0.74	0.789	0.781	0.92	0.772	0.709	0.64	0.632	0.621	0.662	0.664	0.748	0.642
NCI-H1915	0.557	0.619	0.606	0.482	0.682	0.453	0.484	0.438	0.678	0.494	0.647	0.714	0.805	0.619	1.04	1.08	0.991	1.02
NCI-H2023	0.28	0.315	0.349	0.504	0.375	0.565	0.6	0.48	0.918	0.49	0.448	0.434	0.418	0.244	0.576	0.592	0.654	0.673
NCI-H1755	0.636	0.552	0.79	0.81	0.777	0.739	0.841	0.659	0.824	0.751	0.685	0.787	0.765	0.721	0.925	0.918	0.865	0.826
EPLC-272H	0.246	0.255	0.219	0.242	0.208	0.248	0.4	0.31	0.597	0.401	0.262	0.261	0.323	0.314	–	0.96	0.817	0.764
NCI-H1793	–	0.238	0.243	0.207	0.219	0.405	0.643	0.47	0.518	0.367	0.271	0.281	0.324	0.332	0.681	0.615	0.894	0.621
NCI-H358	0.486	–	0.378	0.488	0.211	0.606	0.598	–	0.809	0.283	0.942	0.79	1.04	0.75	0.811	0.836	0.924	0.572
HCC-827	0.727	0.67	0.648	0.783	0.45	0.916	0.943	1.06	0.875	0.861	0.785	0.968	0.828	0.778	0.964	0.927	0.895	1
NCI-H2085	0.502	0.627	0.663	0.556	0.562	0.85	0.708	0.74	0.62	0.695	0.743	0.748	0.696	0.745	0.949	0.944	0.921	0.916
LCLC-97TM1	0.586	0.425	0.558	0.487	0.483	0.702	0.798	0.718	0.897	0.691	0.585	0.66	0.542	0.628	–	0.215	0.281	0.192
EKVX	0.644	0.663	0.763	0.737	0.511	0.811	0.549	0.633	0.657	0.365	0.848	0.689	0.783	0.663	0.788	0.956	0.801	0.899
PC-14	0.71	0.689	0.641	0.907	0.554	0.723	0.662	0.611	0.944	0.324	1.46	1.19	0.994	0.0726	0.989	0.856	0.938	0.962

Cell Line	relative viability (Ibrutinib + OSI-027; first compound 0.005 µM)	relative viability (Ibrutinib + OSI-027; first compound 0.01581 µM)	relative viability (Ibrutinib + OSI-027; first compound 0.05 µM)	relative viability (Ibrutinib + OSI-027; first compound 0.1581 µM)	relative viability (Ibrutinib + OSI-027; first compound 0.5 µM)	relative viability (Ibrutinib + Vorinostat; first compound 0.005 µM)	relative viability (Ibrutinib + Vorinostat; first compound 0.01581 µM)	relative viability (Ibrutinib + Vorinostat; first compound 0.05 µM)	relative viability (Ibrutinib + Vorinostat; first compound 0.1581 µM)	relative viability (Ibrutinib + Vorinostat; first compound 0.5 µM)	relative viability (BMX-IN-1 + OSI-027; first compound 0.02 µM)	relative viability (BMX-IN-1 + OSI-027; first compound 0.2 µM)	relative viability (BMX-IN-1 + OSI-027; first compound 0.6325 µM)	relative viability (BMX-IN-1 + OSI-027; first compound 2 µM)	relative viability (PAC-1 + Alpelisib; first compound 0.02 µM)	relative viability (PAC-1 + Alpelisib; first compound 0.06325 µM)	relative viability (PAC-1 + Alpelisib; first compound 0.2 µM)	relative viability (PAC-1 + Alpelisib; first compound 2 µM)
NCI-H1355	0.29	0.388	0.382	0.347	0.403	–	0.626	–	0.688	0.549	0.386	0.393	0.482	0.424	0.861	0.809	0.753	0.822
NCI-H2009	0.522	0.631	0.585	0.729	0.804	0.728	0.705	0.764	0.759	0.742	0.689	0.651	0.639	0.386	1.1	1.13	1.13	1.15
HARA	0.303	0.437	0.297	0.38	0.247	0.606	0.482	0.663	0.64	0.553	0.403	0.544	0.562	0.457	0.735	0.809	0.779	0.928
H3255	0.459	0.547	0.623	0.654	0.406	0.889	0.725	–	0.764	0.163	0.635	0.658	0.578	0.518	0.823	0.78	0.702	0.717
SW 1573	0.436	0.517	0.653	0.704	0.651	–	0.793	0.694	1.06	1.06	0.882	0.778	0.736	0.0649	0.646	0.82	0.571	0.771
NCI-H1666	0.89	0.747	0.737	0.847	0.621	0.939	1.05	1.07	1.12	0.863	0.948	1.01	0.843	0.951	0.917	0.971	1.06	0.993
NCI-H1993	0.574	0.566	0.584	0.552	0.692	0.443	0.759	1.13	1.01	0.486	0.546	0.6	0.489	0.476	0.701	0.645	0.678	0.672
HCC-366	0.803	0.84	0.934	0.802	0.96	0.396	0.387	0.306	0.443	0.404	1.06	1.14	1.13	1.12	0.409	0.52	0.335	0.437
EMC-BAC-2	0.33	0.352	0.403	0.426	0.405	0.412	0.525	–	–	0.453	0.363	0.363	0.421	0.403	0.72	0.801	0.737	0.67
NCI-H1975	0.681	0.624	0.498	0.692	0.357	0.759	0.556	0.649	0.792	0.324	0.873	0.741	1.04	0.696	0.597	0.678	0.621	0.642
NCI-H1944	0.331	0.33	0.329	0.339	0.331	0.551	0.47	0.517	0.47	0.467	0.417	0.405	0.502	0.452	0.78	0.849	0.813	0.752
NCI-H1395	0.602	0.617	0.612	0.5	0.781	0.529	0.79	0.642	0.516	0.798	0.645	0.64	0.647	0.637	1.19	1.02	1.02	1.02
NCI-H650	0.515	0.481	0.518	0.621	0.539	0.36	0.389	0.413	0.578	0.45	0.511	0.508	0.594	0.531	1.09	1.23	1.23	1.17
NCI-H1437	0.718	0.846	0.941	0.913	0.878	0.865	0.919	0.908	0.854	1.02	1.05	0.912	0.916	0.845	0.953	0.932	0.906	0.716
NCI-H2347	–	0.383	0.374	0.302	0.57	0.59	0.546	0.566	0.493	0.53	0.39	0.356	0.525	0.38	1.08	1.13	0.992	1.05
NCI-H520	0.221	–	0.212	0.258	0.241	0.821	0.665	0.715	0.757	0.719	0.253	0.238	0.279	0.282	0.704	0.979	0.927	0.925
COR-L23	0.644	0.731	0.762	0.875	0.882	0.326	0.51	0.522	0.477	0.566	1.01	0.945	1.01	0.754	0.715	0.812	0.693	0.816
NCI-H2405	0.54	0.627	0.63	0.662	0.638	0.913	1.12	–	–	1.03	0.647	0.63	0.605	0.634	0.811	0.9	0.774	0.873
